Laboratory results taken from PMC3004370, “PI3Kα Inhibitors That Inhibit Metastasis” (Oncotarget, 2010).

Key:
Assay in all cases: Millipore KinaseProfiler
Type in all cases: biochemical
Settings in all cases: read-out: % of control
CLK2 = biological target: T1, CLK2 (Homo sapiens, UniProt P49760)
T1 construct: purchased Millipore (KinaseProfiler service)
Text: (§1) Supplement oncotarget-01-339-s001.doc, table 1: Supplementary Table 1. Millipore KinaseProfiler excerpt | column: % of control

Haspin = biological target: T2, Haspin (Homo sapiens, UniProt Q8TF76)
T2 construct: purchased Millipore (KinaseProfiler service)
Text: as §1

MELK = biological target: T3, MELK (Homo sapiens, UniProt Q14680)
T3 construct: purchased Millipore (KinaseProfiler service)
Text: as §1

Src(1-530) = biological target: T4, Src(1-530) (Homo sapiens, UniProt P12931)
T4 construct: Src(1-530); purchased Millipore (KinaseProfiler service)
Text: as §1

EphB1 = biological target: T5, EphB1 (Homo sapiens, UniProt P54762)
T5 construct: purchased Millipore (KinaseProfiler service)
Text: as §1

IRAK4 = biological target: T6, IRAK4 (Homo sapiens, UniProt Q9NWZ3)
T6 construct: purchased Millipore (KinaseProfiler service)
Text: as §1

Yes = biological target: T7, Yes (Homo sapiens, UniProt P07947)
T7 construct: purchased Millipore (KinaseProfiler service)
Text: as §1

TrkA = biological target: T8, TrkA (Homo sapiens, UniProt P04629)
T8 construct: purchased Millipore (KinaseProfiler service)
Text: as §1

Flt3(D835Y) = biological target: T9, Flt3(D835Y) (Homo sapiens, UniProt P36888, D835Y)
T9 construct: purchased Millipore (KinaseProfiler service)
Text: as §1

cSRC = biological target: T10, cSRC (Homo sapiens, UniProt P12931)
T10 construct: purchased Millipore (KinaseProfiler service)
Text: as §1

Mer = biological target: T11, Mer (Homo sapiens, UniProt Q12866)
T11 construct: purchased Millipore (KinaseProfiler service)
Text: as §1

LIMK1 = biological target: T12, LIMK1 (Homo sapiens, UniProt P53667)
T12 construct: purchased Millipore (KinaseProfiler service)
Text: as §1

Flt3 = biological target: T13, Flt3 (Homo sapiens, UniProt P36888)
T13 construct: purchased Millipore (KinaseProfiler service)
Text: as §1

IRAK1 = biological target: T14, IRAK1 (Homo sapiens, UniProt P51617)
T14 construct: purchased Millipore (KinaseProfiler service)
Text: as §1

TBK1 = biological target: T15, TBK1 (Homo sapiens, UniProt Q9UHD2)
T15 construct: purchased Millipore (KinaseProfiler service)
Text: as §1

EGFR(T790M,L858R) = biological target: T16, EGFR(T790M,L858R) (Homo sapiens, UniProt P00533, L858R/T790M)
T16 construct: purchased Millipore (KinaseProfiler service)
Text: as §1

PTK5 = biological target: T17, PTK5 (Homo sapiens, UniProt P42685)
T17 construct: purchased Millipore (KinaseProfiler service)
Text: as §1

T14 sequence (P51617 whole entry): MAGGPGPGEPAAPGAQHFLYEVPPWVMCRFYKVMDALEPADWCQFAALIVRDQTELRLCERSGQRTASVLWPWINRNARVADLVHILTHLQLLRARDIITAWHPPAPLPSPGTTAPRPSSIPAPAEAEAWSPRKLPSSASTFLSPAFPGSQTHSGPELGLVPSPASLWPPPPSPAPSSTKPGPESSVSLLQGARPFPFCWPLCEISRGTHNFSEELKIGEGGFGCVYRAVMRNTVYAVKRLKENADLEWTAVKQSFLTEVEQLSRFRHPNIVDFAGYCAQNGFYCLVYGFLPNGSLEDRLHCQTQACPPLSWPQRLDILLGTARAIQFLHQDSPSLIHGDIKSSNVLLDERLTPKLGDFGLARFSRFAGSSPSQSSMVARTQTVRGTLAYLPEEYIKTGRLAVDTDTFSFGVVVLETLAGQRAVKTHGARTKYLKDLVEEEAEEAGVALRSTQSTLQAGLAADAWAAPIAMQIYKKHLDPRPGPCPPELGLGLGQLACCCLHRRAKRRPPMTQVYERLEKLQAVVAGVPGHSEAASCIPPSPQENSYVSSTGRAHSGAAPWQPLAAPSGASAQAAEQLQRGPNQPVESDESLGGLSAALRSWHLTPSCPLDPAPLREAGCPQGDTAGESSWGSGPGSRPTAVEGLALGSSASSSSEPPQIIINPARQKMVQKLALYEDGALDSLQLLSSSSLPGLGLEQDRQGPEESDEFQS
T3 sequence (Q14680 whole entry): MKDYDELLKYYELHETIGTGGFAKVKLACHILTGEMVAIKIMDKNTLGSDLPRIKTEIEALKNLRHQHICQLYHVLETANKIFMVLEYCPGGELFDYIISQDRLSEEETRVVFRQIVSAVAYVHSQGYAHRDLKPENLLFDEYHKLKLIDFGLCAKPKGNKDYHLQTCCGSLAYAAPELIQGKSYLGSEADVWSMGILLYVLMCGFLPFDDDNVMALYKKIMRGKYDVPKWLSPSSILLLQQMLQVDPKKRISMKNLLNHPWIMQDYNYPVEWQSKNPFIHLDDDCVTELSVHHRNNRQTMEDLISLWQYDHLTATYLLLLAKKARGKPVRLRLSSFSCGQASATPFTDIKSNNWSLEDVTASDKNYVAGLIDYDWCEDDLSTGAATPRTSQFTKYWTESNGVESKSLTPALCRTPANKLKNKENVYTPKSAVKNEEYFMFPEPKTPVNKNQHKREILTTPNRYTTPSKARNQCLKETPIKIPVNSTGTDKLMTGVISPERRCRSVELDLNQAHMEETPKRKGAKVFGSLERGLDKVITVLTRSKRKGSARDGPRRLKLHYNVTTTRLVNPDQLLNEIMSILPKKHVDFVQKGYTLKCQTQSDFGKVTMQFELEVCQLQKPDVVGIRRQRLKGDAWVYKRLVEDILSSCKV
T12 sequence (P53667 whole entry): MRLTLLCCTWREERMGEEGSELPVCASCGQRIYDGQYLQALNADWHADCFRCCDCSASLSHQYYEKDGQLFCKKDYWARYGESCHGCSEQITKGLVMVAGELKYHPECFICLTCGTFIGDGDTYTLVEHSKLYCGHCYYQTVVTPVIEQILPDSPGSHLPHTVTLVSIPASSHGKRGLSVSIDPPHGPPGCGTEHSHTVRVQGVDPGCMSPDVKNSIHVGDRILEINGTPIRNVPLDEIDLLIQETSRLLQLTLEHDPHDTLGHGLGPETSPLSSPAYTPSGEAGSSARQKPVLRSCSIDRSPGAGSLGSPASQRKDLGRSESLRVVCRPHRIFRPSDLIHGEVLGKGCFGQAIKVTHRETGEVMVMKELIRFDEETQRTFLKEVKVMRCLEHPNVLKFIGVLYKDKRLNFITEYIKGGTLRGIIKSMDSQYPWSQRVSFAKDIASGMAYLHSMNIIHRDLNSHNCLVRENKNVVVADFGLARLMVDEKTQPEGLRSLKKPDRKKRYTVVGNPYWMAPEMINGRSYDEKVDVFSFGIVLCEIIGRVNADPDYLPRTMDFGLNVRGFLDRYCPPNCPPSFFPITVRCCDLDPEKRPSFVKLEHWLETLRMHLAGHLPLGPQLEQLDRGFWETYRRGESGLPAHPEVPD
T2 sequence (Q8TF76 whole entry): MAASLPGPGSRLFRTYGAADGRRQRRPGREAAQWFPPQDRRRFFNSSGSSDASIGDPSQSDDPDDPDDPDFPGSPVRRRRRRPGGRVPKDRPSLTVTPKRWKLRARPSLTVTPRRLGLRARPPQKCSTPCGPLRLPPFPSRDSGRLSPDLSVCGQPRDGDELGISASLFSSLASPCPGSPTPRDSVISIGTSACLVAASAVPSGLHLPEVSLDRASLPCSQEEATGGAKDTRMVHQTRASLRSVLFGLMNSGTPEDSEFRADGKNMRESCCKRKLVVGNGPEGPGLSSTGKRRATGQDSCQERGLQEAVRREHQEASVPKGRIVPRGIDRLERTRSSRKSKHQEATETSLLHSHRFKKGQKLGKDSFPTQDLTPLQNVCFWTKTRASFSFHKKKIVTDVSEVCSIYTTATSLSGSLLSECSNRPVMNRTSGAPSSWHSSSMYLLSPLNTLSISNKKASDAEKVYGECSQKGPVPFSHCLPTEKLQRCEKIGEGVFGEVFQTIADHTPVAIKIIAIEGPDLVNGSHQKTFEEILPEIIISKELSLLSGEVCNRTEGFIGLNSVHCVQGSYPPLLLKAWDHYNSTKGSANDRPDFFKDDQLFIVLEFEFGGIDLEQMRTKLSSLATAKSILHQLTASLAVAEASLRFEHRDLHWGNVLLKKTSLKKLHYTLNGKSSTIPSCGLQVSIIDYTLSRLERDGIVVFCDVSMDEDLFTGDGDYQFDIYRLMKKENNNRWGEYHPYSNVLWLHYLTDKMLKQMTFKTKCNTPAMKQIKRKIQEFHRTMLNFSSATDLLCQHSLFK
T16 sequence (P00533 25-1210 T790M/L858R): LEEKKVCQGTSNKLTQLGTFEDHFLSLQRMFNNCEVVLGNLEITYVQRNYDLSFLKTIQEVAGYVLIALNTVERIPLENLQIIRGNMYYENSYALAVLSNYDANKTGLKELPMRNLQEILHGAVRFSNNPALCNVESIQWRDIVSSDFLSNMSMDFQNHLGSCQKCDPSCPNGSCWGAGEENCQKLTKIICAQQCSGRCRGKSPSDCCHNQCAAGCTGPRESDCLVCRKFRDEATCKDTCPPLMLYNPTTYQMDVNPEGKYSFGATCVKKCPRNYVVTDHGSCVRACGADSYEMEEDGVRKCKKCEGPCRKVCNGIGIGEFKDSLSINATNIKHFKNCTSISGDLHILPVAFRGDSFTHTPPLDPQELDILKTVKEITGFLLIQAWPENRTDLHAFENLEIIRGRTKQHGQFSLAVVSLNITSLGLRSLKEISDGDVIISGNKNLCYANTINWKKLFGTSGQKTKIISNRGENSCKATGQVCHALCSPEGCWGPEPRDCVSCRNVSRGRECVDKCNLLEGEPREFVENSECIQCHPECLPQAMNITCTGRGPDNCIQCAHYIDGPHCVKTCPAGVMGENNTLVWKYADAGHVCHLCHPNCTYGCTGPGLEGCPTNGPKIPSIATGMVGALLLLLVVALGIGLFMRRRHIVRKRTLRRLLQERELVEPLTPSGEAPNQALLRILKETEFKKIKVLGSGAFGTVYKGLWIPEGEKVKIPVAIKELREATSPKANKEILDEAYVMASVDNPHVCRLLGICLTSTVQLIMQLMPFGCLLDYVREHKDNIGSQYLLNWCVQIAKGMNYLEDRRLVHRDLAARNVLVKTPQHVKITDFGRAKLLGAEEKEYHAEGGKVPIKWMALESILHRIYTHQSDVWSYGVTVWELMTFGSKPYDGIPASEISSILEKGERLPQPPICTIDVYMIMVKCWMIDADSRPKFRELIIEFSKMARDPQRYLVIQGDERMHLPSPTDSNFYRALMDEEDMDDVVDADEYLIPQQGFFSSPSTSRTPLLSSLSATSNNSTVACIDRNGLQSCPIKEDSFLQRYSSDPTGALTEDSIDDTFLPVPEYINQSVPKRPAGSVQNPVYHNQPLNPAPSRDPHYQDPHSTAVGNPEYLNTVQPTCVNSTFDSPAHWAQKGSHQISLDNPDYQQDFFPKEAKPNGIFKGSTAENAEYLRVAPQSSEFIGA
T7 sequence (P07947 whole entry): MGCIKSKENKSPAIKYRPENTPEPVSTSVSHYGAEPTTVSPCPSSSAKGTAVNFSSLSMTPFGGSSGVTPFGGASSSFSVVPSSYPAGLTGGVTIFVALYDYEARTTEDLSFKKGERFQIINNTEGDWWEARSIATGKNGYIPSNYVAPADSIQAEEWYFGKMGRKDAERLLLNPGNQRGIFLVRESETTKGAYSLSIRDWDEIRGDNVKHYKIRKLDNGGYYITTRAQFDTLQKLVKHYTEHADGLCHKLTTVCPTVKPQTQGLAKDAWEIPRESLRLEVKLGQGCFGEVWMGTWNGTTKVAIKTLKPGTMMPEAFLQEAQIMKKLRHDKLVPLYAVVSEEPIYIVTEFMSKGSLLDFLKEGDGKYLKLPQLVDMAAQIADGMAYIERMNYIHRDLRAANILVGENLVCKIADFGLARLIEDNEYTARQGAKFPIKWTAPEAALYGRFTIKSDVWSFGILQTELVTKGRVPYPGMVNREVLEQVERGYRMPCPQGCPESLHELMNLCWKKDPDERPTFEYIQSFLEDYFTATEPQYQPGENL
T17 sequence (P42685 whole entry): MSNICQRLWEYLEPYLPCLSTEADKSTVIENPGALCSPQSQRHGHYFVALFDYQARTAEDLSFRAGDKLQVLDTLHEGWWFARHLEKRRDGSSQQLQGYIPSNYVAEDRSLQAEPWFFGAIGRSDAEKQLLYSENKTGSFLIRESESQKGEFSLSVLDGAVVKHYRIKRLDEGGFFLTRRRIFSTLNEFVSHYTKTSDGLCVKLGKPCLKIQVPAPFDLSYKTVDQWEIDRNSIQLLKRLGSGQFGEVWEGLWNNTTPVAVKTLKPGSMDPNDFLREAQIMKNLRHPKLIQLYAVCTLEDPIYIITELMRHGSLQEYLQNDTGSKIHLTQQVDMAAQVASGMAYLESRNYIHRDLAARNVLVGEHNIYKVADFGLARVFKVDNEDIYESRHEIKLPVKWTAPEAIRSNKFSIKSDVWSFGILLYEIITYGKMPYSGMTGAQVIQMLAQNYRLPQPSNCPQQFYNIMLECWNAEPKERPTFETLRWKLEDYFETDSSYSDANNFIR

- remaining activity at 0.011 µM (CLK2): 5%
- remaining activity at 0.011 µM (Haspin): -1%
- remaining activity at 0.011 µM (MELK): 23%
- remaining activity at 0.011 µM (Src(1-530)): 48%
- remaining activity at 0.011 µM (EphB1): 46%
- remaining activity at 0.011 µM (IRAK4): 48%
- remaining activity at 0.011 µM (Yes): 40%
- remaining activity at 0.011 µM (TrkA): 11%
- remaining activity at 0.011 µM (Flt3(D835Y)): 3%
- remaining activity at 0.011 µM (cSRC): 48%
- remaining activity at 0.011 µM (Mer): 33%
- remaining activity at 0.011 µM (LIMK1): 36%
- remaining activity at 0.011 µM (Flt3): 10%
- remaining activity at 0.011 µM (IRAK1): 42%
- remaining activity at 0.011 µM (TBK1): 46%
- remaining activity at 0.011 µM (EGFR(T790M,L858R)): 46%
- remaining activity at 0.011 µM (PTK5): 11%
SMILES: CCN(/N=C/c1cnc2ccc(Br)cn12)S(=O)(=O)c1cc([N+](=O)[O-])c(NC(=O)C(F)(F)F)cc1C [J124]
